The source of these data is PMC4030953, “Pyranose Dehydrogenase from Agaricus campestris and Agaricus xanthoderma: Characterization and Applications in Carbohydrate Conversions” (Biomolecules, 2013).

In assay [1] the target is T1, AcPDH (Agaricus campestris, UniProt V5NDL4).
T1 construct: gene pdh1
Description: in-gel flavin fluorescence after SDS-PAGE. Type of assay: binding. As to conditions: covalent; UV 302 nm.

Assay [2] deals with T1, AcPDH. The experiment in a line: spectrophotometric electron acceptor reduction. To be noted: apparent, 25 mM D-glucose, pH 8.5, 30 °C. Type of assay: biochemical. From the text: spectrophotometric electron acceptor reduction on AcPDH
Assay [3] addresses T2, AxPDH (Agaricus xanthodermus, UniProt V5NC32).
T2 construct: gene pdh1
The experiment in a line: spectrophotometric electron acceptor reduction. Type of assay: biochemical. As to conditions: apparent, 25 mM D-glucose, pH 8.5, 30 °C. From the text: spectrophotometric electron acceptor reduction on AxPDH

T1 sequence (V5NDL4 22-595): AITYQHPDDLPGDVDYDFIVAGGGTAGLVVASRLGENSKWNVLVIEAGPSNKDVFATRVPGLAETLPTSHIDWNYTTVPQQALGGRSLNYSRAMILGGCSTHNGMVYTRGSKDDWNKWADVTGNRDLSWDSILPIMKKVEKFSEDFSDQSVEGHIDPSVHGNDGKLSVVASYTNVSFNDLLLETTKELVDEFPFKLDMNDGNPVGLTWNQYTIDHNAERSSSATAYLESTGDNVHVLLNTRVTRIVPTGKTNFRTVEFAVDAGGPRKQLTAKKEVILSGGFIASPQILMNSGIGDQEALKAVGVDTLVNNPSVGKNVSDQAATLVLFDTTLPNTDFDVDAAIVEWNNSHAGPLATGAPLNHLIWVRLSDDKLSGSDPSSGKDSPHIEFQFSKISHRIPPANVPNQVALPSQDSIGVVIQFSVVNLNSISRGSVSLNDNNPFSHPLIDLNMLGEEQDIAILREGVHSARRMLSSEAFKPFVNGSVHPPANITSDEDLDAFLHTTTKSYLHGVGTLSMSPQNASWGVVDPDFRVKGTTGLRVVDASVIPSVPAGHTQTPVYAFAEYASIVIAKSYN
T2 sequence (V5NC32 26-600): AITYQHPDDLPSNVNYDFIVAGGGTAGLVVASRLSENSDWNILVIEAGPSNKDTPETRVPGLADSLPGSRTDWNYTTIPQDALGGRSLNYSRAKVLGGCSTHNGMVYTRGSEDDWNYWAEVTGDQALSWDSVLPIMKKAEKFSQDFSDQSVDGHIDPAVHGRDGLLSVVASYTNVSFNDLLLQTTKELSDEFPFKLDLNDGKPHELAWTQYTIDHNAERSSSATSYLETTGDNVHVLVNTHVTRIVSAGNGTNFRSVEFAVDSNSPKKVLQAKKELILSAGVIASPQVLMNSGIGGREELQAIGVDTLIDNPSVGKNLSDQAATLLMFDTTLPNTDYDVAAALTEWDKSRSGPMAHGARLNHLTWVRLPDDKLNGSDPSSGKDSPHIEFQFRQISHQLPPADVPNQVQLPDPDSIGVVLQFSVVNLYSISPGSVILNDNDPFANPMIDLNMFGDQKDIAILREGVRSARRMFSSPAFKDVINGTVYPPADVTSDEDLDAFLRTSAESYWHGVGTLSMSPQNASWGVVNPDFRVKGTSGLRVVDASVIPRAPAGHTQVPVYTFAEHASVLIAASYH

As for `Cc1cc2nc3c(=O)[nH]c(=O)nc-3n(C[C@H](O)[C@H](O)[C@H](O)COP(=O)(O)OP(=O)(O)OC[C@H]3O[C@@H](n4cnc5c(N)ncnc54)[C@H](O)[C@@H]3O)c2cc1C` [FAD], the “in-gel flavin fluorescence after SDS-PAGE” value in assay [1] was “AcPDH and AxPDH showed a bright band under UV-light”. What is called Km is the concentration of substrate that gives half-maximal velocity. As to `F[P-](F)(F)(F)(F)F.[Fe+3].c1cc[cH-]c1.c1cc[cH-]c1` [Fc^+PF6], the figures for the Michaelis constant (Km) in assay [2] and in assay [3] were 1190 ± 170 µM and 30 µM, respectively.
